Experimental data: US12043600B2, “Microbiocidal compounds” (SYNGENTA CROP PROTECTION AG, priority 2018, dated 2024)

Legend:
[1] = test system: Magnaporthe grisea (Pyricularia oryzae); experiment: whole plant or invertebrate; assay type: in vivo; conditions: foliar, read-out: control of Magnaporthe grisea
[2] = test system: Mycosphaerella arachidis (Cercospora arachidicola); experiment: Mycosphaerella arachidis (Cercospora arachidicola)/Liquid Culture (Early Leaf Spot); assay type: cell-based; conditions: liquid culture, compared to untreated control
Description: (§1) Conidia of the fungus from cryogenic storage are directly mixed into nutrient broth (PDB potato dextrose broth). After placing a (DMSO) solution of test compound into a microtiter plate (96-well format), the nutrient broth containing the fungal spores is added.

Phytophthora infestans = experiment: whole plant or invertebrate; assay type: in vivo; conditions: in Solanum lycopersicum, foliar, read-out: control of Phytophthora infestans
[3] = test system: Monographella nivalis (Microdochium nivale); experiment: Monographella nivalis (Microdochium nivale)/Liquid Culture (Foot Rot Cereals); assay type: cell-based; conditions: liquid culture, compared to untreated control
Description: as §1

[4] = test system: Glomerella lagenarium (Colletotrichum lagenarium); experiment: Glomerella lagenarium (Colletotrichum lagenarium)/Liquid Culture (Anthracnose); assay type: cell-based; conditions: Colletotrichum orbiculare, liquid culture, compared to untreated control
[5] = test system: Puccinia recondita f. sp. tritici; experiment: Puccinia recondita f. sp. tritici/Wheat/Leaf Disc Preventative (Brown Rust); assay type: in vivo; conditions: foliar, 200 ppm, wheat leaf disc preventative, compared to untreated control, read-out: control of Puccinia recondita f. sp. tritici
[6] = test system: Phaeosphaeria nodorum (Septoria nodorum); experiment: Phaeosphaeria nodorum (Septoria nodorum)/Wheat/Leaf Disc Preventative (Glume Blotch); assay type: in vivo; conditions: Parastagonospora nodorum, foliar, wheat leaf disc preventative, compared to untreated control
Description: Wheat leaf segments cv. Kanzler are placed on agar in a multiwell plate (24-well format) and sprayed with the formulated test compound diluted in water. The leaf disks are inoculated with a spore suspension of the fungus 2 days after application. The inoculated test leaf disks are incubated at 20° C. and 75% rh under a light regime of 12 h light/12 h darkness in a climate cabinet and the activity of a compound is assessed as percent disease control compared to untreated when an appropriate level of disease damage appears in untreated check leaf disks (5-7 days after application).

Plasmopara viticola = experiment: whole plant or invertebrate; assay type: in vivo; conditions: foliar, read-out: control of Plasmopara viticola
[7] = test system: Mycosphaerella graminicola (Septoria tritici); experiment: Mycosphaerella graminicola (Septoria tritici)/Liquid Culture (Septoria Blotch); assay type: cell-based; conditions: Zymoseptoria tritici; 20 ppm; liquid culture; compared to untreated control
Description: Conidia of the fungus from cryogenic storage are directly mixed into nutrient broth (PDB potato dextrose broth). After placing a (DMSO) solution of test compound into a microtiter plate (96-well format), the nutrient broth containing the fungal spores is added. […] The data are presented as the percentage of disease control of each compound for the biological tests against G. lagenarium (Example B3), P. recondita preventative (Example B13), P. teres (Example B15) and M. graminicola (Example B19) as described above. The testing rates of each biological test is specifically described in table C1 below.

[8] = test system: Botryotinia fuckeliana (Botrytis cinerea); experiment: Botryotinia fuckeliana (Botrytis cinerea)/Liquid Culture (Gray Mould); assay type: cell-based; conditions: liquid culture, compared to untreated control
Description: Conidia of the fungus from cryogenic storage are directly mixed into nutrient broth (Vogels broth). After placing a (DMSO) solution of test compound into a microtiter plate (96-well format), the nutrient broth containing the fungal spores is added.

Phakopsora pachyrhizi = experiment: Phakopsora pachyrhizi/Soybean/Preventative (Soybean Rust); assay type: in vivo; conditions: foliar, 288 h, 200 ppm, soybean leaf disc preventative, compared to untreated control, read-out: control of Phakopsora pachyrhizi
[9] = test system: Puccinia recondita f. sp. tritici; experiment: Puccinia recondita f. sp. tritici/Wheat/Leaf Disc Curative (Brown Rust); assay type: in vivo; conditions: foliar, wheat leaf disc curative, compared to untreated control
Description: Wheat leaf segments cv. Kanzler are placed on agar in multiwell plates (24-well format). The leaf segments are inoculated with a spore suspension of the fungus. Plates are stored in darkness at 19° C. and 75% rh. The formulated test compound diluted in water is applied 1 day after inoculation. The leaf segments are incubated at 19° C. and 75% rh under a light regime of 12 h light/12 h darkness in a climate cabinet and the activity of a compound is assessed as percent disease control compared to untreated when an appropriate level of disease damage appears in untreated check leaf segments (6-8 days after application).

[10] = test system: Blumeria graminis f. sp. tritici (Erysiphe graminis f. sp. tritici); experiment: Blumeria graminis f. sp. tritici/Wheat/Leaf Disc Preventative (Powdery Mildew on Wheat); assay type: in vivo; conditions: foliar, wheat leaf disc preventative, compared to untreated control
Description: Wheat leaf segments cv. Kanzler are placed on agar in a multiwell plate (24-well format) and sprayed with the formulated test compound diluted in water. The leaf disks are inoculated by shaking powdery mildew infected plants above the test plates 1 day after application. The inoculated leaf disks are incubated at 20° C. and 60% rh under a light regime of 24 h darkness followed by 12 h light/12 h darkness in a climate chamber and the activity of a compound is assessed as percent disease control compared to untreated when an appropriate level of disease damage appears on untreated check leaf segments (6-8 days after application).

Compound	pest or weed control at 200 ppm [1]	inhibition of growth at 20 ppm [2]	pest or weed control at 200 ppm (Phytophthora infestans)	inhibition of growth at 20 ppm [3]	inhibition of growth at 20 ppm [4]	pest or weed control at 200 ppm [5]	pest or weed control at 200 ppm [6]	pest or weed control at 200 ppm (Plasmopara viticola)	inhibition of growth at 20 ppm [7]	inhibition of growth at 20 ppm [8]	melting point	pest or weed control at 200 ppm (Phakopsora pachyrhizi)	pest or weed control at 200 ppm [9]	pest or weed control at 200 ppm [10]
CCCc1nn(-c2ccc(C)c(O/C(=C\OC)C(=O)OC)c2)cc1Cl [Compound E-6, methyl (Z)-2-[5-(4-chloro-3-propyl-pyrazol-1-yl)-2-methyl-phenoxy]-3-methoxy-prop-2-enoate]	≥ 80%	≥ 80%	≥ 80%	≥ 80%	≥ 80%	≥ 80%	≥ 80%	≥ 80%	≥ 80%	≥ 80%	–	–	–	–
CO/C=C(\Oc1cc(-n2ccc(CC#N)n2)ccc1C)C(=O)OC [Compound E-33, methyl (Z)-2-[5-[3-(cyanomethyl)pyrazol-1-yl]-2-methyl-phenoxy]-3-methoxy-prop-2-enoate]	–	≥ 80%	–	≥ 80%	≥ 80%	≥ 80%	–	≥ 80%	≥ 80%	≥ 80%	120 to 123 °C	–	–	–
CO/C=C(\Oc1cc(-n2ccc(C)n2)c(OC)cc1C)C(=O)OC [Compound E-37, methyl (Z)-3-methoxy-2-[4-methoxy-2-methyl-5-(3-methylpyrazol-1-yl)phenoxy]prop-2-enoate]	–	≥ 80%	–	≥ 80%	–	≥ 80%	–	≥ 80%	≥ 80%	≥ 80%	99 to 101 °C	≥ 50%	≥ 80%	–
CO/C=C(\Oc1cc(-n2cc(Br)cn2)ccc1C)C(=O)OC [Compound E-47, methyl (Z)-2-[5-(4-bromopyrazol-1-yl)-2-methyl-phenoxy]-3-methoxy-prop-2-enoate]	≥ 80%	≥ 80%	≥ 80%	≥ 80%	≥ 80%	≥ 80%	≥ 80%	≥ 80%	≥ 80%	≥ 80%	–	≥ 50%	≥ 80%	≥ 80%
CO/C=C(\Oc1cc(-n2cc(C(C)(C)C)cn2)ccc1C)C(=O)OC [Compound E-49, methyl (Z)-2-[5-(4-tert-butylpyrazol-1-yl)-2-methyl-phenoxy]-3-methoxy-prop-2-enoate]	≥ 80%	≥ 80%	≥ 80%	≥ 80%	≥ 80%	≥ 80%	≥ 80%	≥ 80%	≥ 80%	≥ 80%	–	–	≥ 80%	–
CO/C=C(\Oc1cc(-n2cc(COC)cn2)ccc1C)C(=O)OC [Compound E-51, methyl (Z)-3-methoxy-2-[5-[4-(methoxymethyl)pyrazol-1-yl]-2-methyl-phenoxy]prop-2-enoate]	≥ 80%	≥ 80%	–	≥ 80%	≥ 80%	≥ 80%	–	≥ 80%	≥ 80%	≥ 80%	–	≥ 50%	≥ 80%	≥ 80%
CO/C=C(\Oc1cc(-n2ccc(SC(F)(F)F)n2)ccc1C)C(=O)OC [Compound E-61, methyl (Z)-3-methoxy-2-[2-methyl-5-[3-(trifluoromethylsulfanyl)pyrazol-1-yl]phenoxy]prop-2-enoate]	≥ 80%	≥ 80%	≥ 80%	≥ 80%	≥ 80%	≥ 80%	–	≥ 80%	≥ 80%	≥ 80%	137 to 139 °C	≥ 50%	–	≥ 80%
CO/C=C(\Oc1cc(-n2ccc(OC)n2)ccc1C)C(=O)OC [Compound E-95, methyl (Z)-3-methoxy-2-[5-(3-methoxypyrazol-1-yl)-2-methyl-phenoxy]prop-2-enoate]	–	≥ 80%	≥ 80%	≥ 80%	≥ 80%	≥ 80%	–	≥ 80%	≥ 80%	≥ 80%	120 to 123 °C	–	≥ 80%	≥ 80%
CO/C=C(\Oc1cc(-n2ccc(C(F)F)n2)ccc1C)C(=O)OC [Compound E-96, methyl (Z)-2-[5-[3-(difluoromethyl)pyrazol-1-yl]-2-methyl-phenoxy]-3-methoxy-prop-2-enoate]	–	≥ 80%	≥ 80%	≥ 80%	≥ 80%	≥ 80%	≥ 80%	≥ 80%	≥ 80%	≥ 80%	–	–	≥ 80%	≥ 80%
CO/C=C(\Oc1cc(-n2ccc(Cl)n2)ccc1C)C(=O)OC [Compound E-100, methyl (Z)-2-[5-(3-chloropyrazol-1-yl)-2-methyl-phenoxy]-3-methoxy-prop-2-enoate]	≥ 80%	≥ 80%	≥ 80%	≥ 80%	≥ 80%	≥ 80%	≥ 80%	≥ 80%	≥ 80%	≥ 80%	150 to 152 °C	–	–	≥ 80%
CO/C=C(\Oc1cc(-n2cc(C)c(C)n2)ccc1C)C(=O)OC [Compound E-116, methyl (Z)-2-[5-(3,4-dimethylpyrazol-1-yl)-2-methyl-phenoxy]-3-methoxy-prop-2-enoate]	–	≥ 80%	≥ 80%	≥ 80%	≥ 80%	≥ 80%	–	≥ 80%	≥ 80%	≥ 80%	155 to 157 °C	–	≥ 80%	≥ 80%
